# Where two headings read alike, the source gives them in different places. Ends that are not written are not given here.
# Test system: MDR-EAEC isolates
# Method: Initially, characterization of Lfcin (17–30) was performed by determining its minimum inhibitory concentration (MIC), minimum bactericidal concentration (MBC), in vitro stability assays (high-end temperatures, the physiological concentration of cationic salts and proteases), and in vitro safety assays (sheep erythrocyte hemolysis and secondary cell line cytotoxicity) (Supplementary Files S1–S3). The membrane permeabilization effect of Lfcin (17–30) was assessed by flow cytometry, whereas outer and inner membrane permeability of MDR-EAEC strains treated with 1 × and 2 × MIC levels of Lfcin (17–30) was carried out based on the nitrocefin activity as well as the release of cytoplasmic β-galactosidase activity, respectively (Supplementary File S4). Further, Lfcin (17–30) was evaluated for its antibacterial activity against beneficial lactobacilli (L. acidophilus MTCC 10307 and L. rhamnosus MTCC 1408) (Supplementary File S5).
# To explore the utility of Lfcin (17-30) as a therapeutic molecule, in vitro stability was evaluated by exposing it to high-end temperatures, proteases as well as the physiological concentration of salts. In brief, the effect of temperature was investigated by incubating Lfcin (17-30) at 70 °C and 90 °C for 5, 15, and 30 min followed by measuring the MIC value. The effect of proteases (trypsin and proteinase-K) on the antimicrobial activity of Lfcin (17-30) [Protease: AMP- 1:100 (w/w)] was investigated by incubating with the respective protease at 37 °C for 30 sec, 2, 5, 15 and 30 min, followed by inactivating the enzyme at 90 °C for 10 min and measuring the MIC value. The stability of Lfcin (17-30) in the presence of high salt concentrations (150 mM and 2 mM MgCl2) was estimated in regular MH broth. Appropriate controls were included in each experiment.
# [1] = MgCl2 (2 mM), regular MH broth, MDR 1
# [2] = MgCl2 (2 mM), regular MH broth, MDR 2
# [3] = MgCl2 (2 mM), regular MH broth, MDR 3
# [4] = NaCl (150 mM), regular MH broth, MDR 1
# [5] = NaCl (150 mM), regular MH broth, MDR 2
# [6] = NaCl (150 mM), regular MH broth, MDR 3
# [7] = peptide incubated at 70°C for 5 min, MDR 1
# [8] = peptide incubated at 70°C for 5 min, MDR 2
# [9] = peptide incubated at 70°C for 5 min, MDR 3
# [10] = peptide incubated at 70°C for 15 min, MDR 1
# [11] = peptide incubated at 70°C for 15 min, MDR 2
# [12] = peptide incubated at 70°C for 15 min, MDR 3
# [13] = peptide incubated at 70°C for 30 min, MDR 1
# [14] = peptide incubated at 70°C for 30 min, MDR 2
# [15] = peptide incubated at 70°C for 30 min, MDR 3
# [16] = peptide incubated at 90°C for 5 min, MDR 1
# [17] = peptide incubated at 90°C for 5 min, MDR 2
# [18] = peptide incubated at 90°C for 5 min, MDR 3
# [19] = peptide incubated at 90°C for 15 min, MDR 1
# [20] = peptide incubated at 90°C for 15 min, MDR 2
# [21] = peptide incubated at 90°C for 15 min, MDR 3
# [22] = peptide incubated at 90°C for 30 min, MDR 1
# [23] = peptide incubated at 90°C for 30 min, MDR 2
# [24] = peptide incubated at 90°C for 30 min, MDR 3
# [25] = proteinase-K 1:100 (w/w), 37°C, 2 min, MDR 1
# [26] = proteinase-K 1:100 (w/w), 37°C, 2 min, MDR 2
# [27] = proteinase-K 1:100 (w/w), 37°C, 2 min, MDR 3
# [28] = proteinase-K 1:100 (w/w), 37°C, 5 min, MDR 1
# [29] = proteinase-K 1:100 (w/w), 37°C, 5 min, MDR 2
# [30] = proteinase-K 1:100 (w/w), 37°C, 5 min, MDR 3
# [31] = proteinase-K 1:100 (w/w), 37°C, 15 min, MDR 1
# [32] = proteinase-K 1:100 (w/w), 37°C, 15 min, MDR 2
# [33] = proteinase-K 1:100 (w/w), 37°C, 15 min, MDR 3
# [34] = proteinase-K 1:100 (w/w), 37°C, 30 min, MDR 1
# [35] = proteinase-K 1:100 (w/w), 37°C, 30 min, MDR 2
# [36] = proteinase-K 1:100 (w/w), 37°C, 30 min, MDR 3
# [37] = trypsin 1:100 (w/w), 37°C, 2 min, MDR 1
# [38] = trypsin 1:100 (w/w), 37°C, 2 min, MDR 2
# [39] = trypsin 1:100 (w/w), 37°C, 2 min, MDR 3
# [40] = trypsin 1:100 (w/w), 37°C, 5 min, MDR 1
# [41] = trypsin 1:100 (w/w), 37°C, 5 min, MDR 2
# [42] = trypsin 1:100 (w/w), 37°C, 5 min, MDR 3
# [43] = trypsin 1:100 (w/w), 37°C, 15 min, MDR 1
# [44] = trypsin 1:100 (w/w), 37°C, 15 min, MDR 2
# [45] = trypsin 1:100 (w/w), 37°C, 15 min, MDR 3
# [46] = trypsin 1:100 (w/w), 37°C, 30 min, MDR 1
# [47] = trypsin 1:100 (w/w), 37°C, 30 min, MDR 2
# [48] = trypsin 1:100 (w/w), 37°C, 30 min, MDR 3
sequence,measurement,setting,value
FKCRRWQWRMKKLG [Lfcin (17–30)],MBC,[1],32.0 mg/L
same,MIC,[1],32.0 mg/L
same,MBC,[2],32.0 mg/L
same,MIC,[2],32.0 mg/L
same,MBC,[3],32.0 mg/L
same,MIC,[3],32.0 mg/L
same,MBC,[4],32.0 mg/L
same,MIC,[4],32.0 mg/L
same,MBC,[5],32.0 mg/L
same,MIC,[5],32.0 mg/L
same,MBC,[6],32.0 mg/L
same,MIC,[6],32.0 mg/L
same,MBC,[7],32.0 mg/L
same,MIC,[7],32.0 mg/L
same,MBC,[8],32.0 mg/L
same,MIC,[8],32.0 mg/L
same,MBC,[9],32.0 mg/L
same,MIC,[9],32.0 mg/L
same,MBC,[10],32.0 mg/L
same,MIC,[10],32.0 mg/L
same,MBC,[11],32.0 mg/L
same,MIC,[11],32.0 mg/L
same,MBC,[12],32.0 mg/L
same,MIC,[12],32.0 mg/L
same,MBC,[13],32.0 mg/L
same,MIC,[13],32.0 mg/L
same,MBC,[14],32.0 mg/L
same,MIC,[14],32.0 mg/L
same,MBC,[15],32.0 mg/L
same,MIC,[15],32.0 mg/L
same,MBC,[16],32.0 mg/L
same,MIC,[16],32.0 mg/L
same,MBC,[17],32.0 mg/L
same,MIC,[17],32.0 mg/L
same,MBC,[18],32.0 mg/L
same,MIC,[18],32.0 mg/L
same,MBC,[19],32.0 mg/L
same,MIC,[19],32.0 mg/L
same,MBC,[20],32.0 mg/L
same,MIC,[20],32.0 mg/L
same,MBC,[21],32.0 mg/L
same,MIC,[21],32.0 mg/L
same,MBC,[22],32.0 mg/L
same,MIC,[22],32.0 mg/L
same,MBC,[23],32.0 mg/L
same,MIC,[23],32.0 mg/L
same,MBC,[24],32.0 mg/L
same,MIC,[24],32.0 mg/L
same,MBC,"proteinase-K 1:100 (w/w), 37°C, 0.5 min, MDR 1",16.0 mg/L
same,MBC,"proteinase-K 1:100 (w/w), 37°C, 0.5 min, MDR 2",32.0 mg/L
same,MBC,"proteinase-K 1:100 (w/w), 37°C, 0.5 min, MDR 3",4.0 mg/L
same,MBC,[25],16.0 mg/L
same,MIC,[25],8.0 mg/L
same,MBC,[26],32.0 mg/L
same,MIC,[26],8.0 mg/L
same,MBC,[27],4.0 mg/L
same,MIC,[27],4.0 mg/L
same,MBC,[28],16.0 mg/L
same,MIC,[28],8.0 mg/L
same,MBC,[29],32.0 mg/L
same,MIC,[29],8.0 mg/L
same,MBC,[30],4.0 mg/L
same,MIC,[30],4.0 mg/L
same,MBC,[31],16.0 mg/L
same,MIC,[31],8.0 mg/L
same,MBC,[32],32.0 mg/L
same,MIC,[32],8.0 mg/L
same,MBC,[33],4.0 mg/L
same,MIC,[33],4.0 mg/L
same,MBC,[34],8.0 mg/L
same,MIC,[34],8.0 mg/L
same,MBC,[35],16.0 mg/L
same,MIC,[35],8.0 mg/L
same,MBC,[36],4.0 mg/L
same,MIC,[36],2.0 mg/L
same,MIC,"proteinase-K, protease:AMP 1:100 (w/w), 37°C, 0.5 min, enzyme inactivated 90°C 10 min, MDR 1",8.0 mg/L
same,MIC,"proteinase-K, protease:AMP 1:100 (w/w), 37°C, 0.5 min, enzyme inactivated 90°C 10 min, MDR 2",8.0 mg/L
same,MIC,"proteinase-K, protease:AMP 1:100 (w/w), 37°C, 0.5 min, enzyme inactivated 90°C 10 min, MDR 3",4.0 mg/L
same,stability to protease (proteinase-K),"proteinase-K, judged by MIC and MBC",stable
same,MBC,"trypsin 1:100 (w/w), 37°C, 0.5 min, MDR 1",16.0 mg/L
same,MBC,"trypsin 1:100 (w/w), 37°C, 0.5 min, MDR 2",16.0 mg/L
same,MBC,"trypsin 1:100 (w/w), 37°C, 0.5 min, MDR 3",16.0 mg/L
same,MBC,[37],16.0 mg/L
same,MIC,[37],16.0 mg/L
same,MBC,[38],16.0 mg/L
same,MIC,[38],16.0 mg/L
same,MBC,[39],16.0 mg/L
same,MIC,[39],16.0 mg/L
same,MBC,[40],16.0 mg/L
same,MIC,[40],16.0 mg/L
same,MBC,[41],16.0 mg/L
same,MIC,[41],16.0 mg/L
same,MBC,[42],16.0 mg/L
same,MIC,[42],16.0 mg/L
same,MBC,[43],16.0 mg/L
same,MIC,[43],16.0 mg/L
same,MBC,[44],16.0 mg/L
same,MIC,[44],16.0 mg/L
same,MBC,[45],32.0 mg/L
same,MIC,[45],16.0 mg/L
same,MBC,[46],16.0 mg/L
same,MIC,[46],16.0 mg/L
same,MBC,[47],16.0 mg/L
same,MIC,[47],16.0 mg/L
same,MBC,[48],32.0 mg/L
same,MIC,[48],16.0 mg/L
same,MIC,"trypsin, protease:AMP 1:100 (w/w), 37°C, 0.5 min, enzyme inactivated 90°C 10 min, MDR 1",16.0 mg/L
same,MIC,"trypsin, protease:AMP 1:100 (w/w), 37°C, 0.5 min, enzyme inactivated 90°C 10 min, MDR 2",16.0 mg/L
same,MIC,"trypsin, protease:AMP 1:100 (w/w), 37°C, 0.5 min, enzyme inactivated 90°C 10 min, MDR 3",16.0 mg/L
same,stability to protease (trypsin),"trypsin, judged by MIC and MBC",stable

# Source: publication PMC7531601, “Exploiting Lactoferricin (17–30) as a Potential Antimicrobial and Antibiofilm Candidate Against Multi-Drug-Resistant Enteroaggregative Escherichia coli” (Frontiers in Microbiology, 2020)
